Like-named read-outs stand apart in the source and are kept apart here.
Tested on: Mycosphaerella graminicola; Anamorph: Septoria tritici; Bayer Code SEPTTR
Assay: Leaf blotch of wheat, foliar fungicide treatment, one day protectant (1DP) or three day curative (3DC)
Assay type: in vivo, Septoria tritici on wheat plants (variety Yuma)
Conditions: Zymoseptoria tritici; for pest or weed control at 50 ppm / pest or weed control at 200 ppm: % disease control rating, one day protectant; for pest or weed control at 25 ppm / pest or weed control at 100 ppm: percent control rating; for pest or weed control at 100 ppm: read-out: SEPTTR 3DC 100 ppm
[1] = 24 h, one day protectant (1DP), 25 ppm (first 1DP column), read-out: SETTTR 1DP 25 ppm
[2] = 24 h, one day protectant (1DP), 25 ppm as printed (second 1DP column), read-out: SETTTR 1DP 25 ppm
[3] = 72 h, three day curative (3DC), 25 ppm, read-out: SEPTTR 3DC 25 ppm

With `Cc1ccc(CNc2nc(OCc3ccc(Cl)cc3)ncc2F)cc1` [Compound 920] the pest or weed control at 50 ppm (24 h) was 76 to 100% and the pest or weed control at 200 ppm (24 h) was 76 to 100%.

`Fc1ccc(COc2ncc(F)c(NCc3ccccc3F)n2)c(F)c1` [Compound 921] showed a pest or weed control at 50 ppm (24 h) of 76 to 100% and a pest or weed control at 200 ppm (24 h) of 76 to 100%.

`Cc1ccc(CNc2nc(OCc3cccs3)ncc2F)cc1` [Compound 922] was tested, and the pest or weed control at 50 ppm (24 h) was 51 to 75% and the pest or weed control at 200 ppm (24 h) was 26 to 50%.

In the case of `Fc1ccc(COc2ncc(F)c(NCc3cccs3)n2)c(F)c1` [Compound 923], the pest or weed control at 200 ppm (24 h) is reported as 76 to 100%.

With `Fc1ccccc1CNc1nc(OCc2cccc(Cl)c2)ncc1F` [Compound 924] the pest or weed control at 50 ppm (24 h) was 76 to 100% and the pest or weed control at 200 ppm (24 h) was 76 to 100%.

Work on `Fc1cnc(OCc2ccc(Cl)cc2)nc1N1CCOCC1` [Compound 925] yielded a pest or weed control at 50 ppm (24 h) of 0 to 25% and a pest or weed control at 200 ppm (24 h) of 0 to 25%.

`Cc1ccc(COc2ncc(F)c(NCCc3ccccc3)n2)cc1` [Compound 926] was tested, and the pest or weed control at 50 ppm (24 h) was 76 to 100% and the pest or weed control at 200 ppm (24 h) was 76 to 100%.

`Fc1ccc(COc2ncc(F)c(NC3CC3)n2)cc1` [Compound 927] gave a pest or weed control at 50 ppm (24 h) of 51 to 75% and a pest or weed control at 200 ppm (24 h) of 76 to 100%.

Work on `Fc1ccccc1CNc1nc(OCc2ccc3c(c2)OCO3)ncc1F` [Compound 928] yielded a pest or weed control at 50 ppm (24 h) of 76 to 100% and a pest or weed control at 200 ppm (24 h) of 76 to 100%.

For `COc1ccc(COc2ncc(F)c(NCc3ccc(Cl)cc3)n2)cc1` [Compound 929], the pest or weed control at 50 ppm (24 h) was 51 to 75% and the pest or weed control at 200 ppm (24 h) was 76 to 100%.

Compound `Cc1ccc(COc2ncc(F)c(NCc3ccccc3F)n2)cc1` [Compound 930] has a pest or weed control at 50 ppm (24 h) of 0 to 25% and a pest or weed control at 200 ppm (24 h) of 76 to 100%.

`COc1cccc(COc2ncc(F)c(NCc3cccs3)n2)c1` [Compound 931] gave a pest or weed control at 200 ppm (24 h) of 76 to 100%.

`C=CCOc1ncc(F)c(N)n1` [Compound 932] was tested, and the pest or weed control at 50 ppm (24 h) was 76 to 100% and the pest or weed control at 200 ppm (24 h) was 76 to 100%.

`Cc1cnc(CNc2nc(OCCc3ccccc3)ncc2F)cn1` [Compound 934] showed a pest or weed control at 50 ppm (24 h) of 0 to 25% and a pest or weed control at 200 ppm (24 h) of 26 to 50%.

Compound `Fc1cnc(OCc2ccccn2)nc1NCc1ccc(Cl)cc1` [Compound 935] has a pest or weed control at 50 ppm (24 h) of 26 to 50% and a pest or weed control at 200 ppm (24 h) of 76 to 100%.

In the case of `Nc1nc(OCCc2ccccc2)ncc1F` [Compound 936], the pest or weed control at 50 ppm (24 h) is reported as 76 to 100% and the pest or weed control at 200 ppm (24 h) is reported as 76 to 100%.

`Fc1cnc(OCc2cccs2)nc1NCCc1ccccc1` [Compound 937] showed a pest or weed control at 50 ppm (24 h) of 76 to 100% and a pest or weed control at 200 ppm (24 h) of 76 to 100%.

In the case of `Fc1ccc(COc2ncc(F)c(NC3CC3)n2)cc1F` [Compound 938], the pest or weed control at 200 ppm (24 h) is reported as 76 to 100%.

`Cc1cc(COc2ncc(F)c(N)n2)no1` [Compound 939] gave a pest or weed control at 50 ppm (24 h) of 0 to 25% and a pest or weed control at 200 ppm (24 h) of 76 to 100%.

`Fc1cnc(OCCc2ccccc2)nc1NC1CC1` [Compound 940] was tested, and the pest or weed control at 50 ppm (24 h) was 0 to 25% and the pest or weed control at 200 ppm (24 h) was 0 to 25%.

In the case of `Fc1cnc(OCc2ccc(Cl)cc2Cl)nc1NCc1ccc(Cl)cc1` [Compound 942], the pest or weed control at 50 ppm (24 h) is reported as 76 to 100% and the pest or weed control at 200 ppm (24 h) is reported as 76 to 100%.

Work on `Fc1ccccc1CNc1nc(OCc2c(Cl)cccc2Cl)ncc1F` [Compound 943] yielded a pest or weed control at 50 ppm (24 h) of 51 to 75% and a pest or weed control at 200 ppm (24 h) of 76 to 100%.

`Fc1cnc(OCc2ccco2)nc1N1CCOCC1` [Compound 944] was tested, and the pest or weed control at 50 ppm (24 h) was 0 to 25% and the pest or weed control at 200 ppm (24 h) was 0 to 25%.

`Fc1cnc(OCc2cccs2)nc1NCc1ccc(Cl)cc1` [Compound 945] was tested, and the pest or weed control at 50 ppm (24 h) was 76 to 100% and the pest or weed control at 200 ppm (24 h) was 76 to 100%.

In the case of `Fc1cnc(OCc2ccco2)nc1NCc1ccc(Cl)cc1` [Compound 946], the pest or weed control at 50 ppm (24 h) is reported as 51 to 75% and the pest or weed control at 200 ppm (24 h) is reported as 76 to 100%.

In the case of `CC(=O)Nc1nc(OCc2ccc(C(F)(F)F)cc2)ncc1F` [Compound 947], the pest or weed control at 50 ppm (24 h) is reported as 76 to 100% and the pest or weed control at 200 ppm (24 h) is reported as 76 to 100%.

Compound `Fc1ccccc1CNc1nc(OCCc2ccccc2)ncc1F` [Compound 948] has a pest or weed control at 50 ppm (24 h) of 0 to 25% and a pest or weed control at 200 ppm (24 h) of 0 to 25%.

With `Cc1ccc(COc2ncc(F)c(NCc3cccs3)n2)cc1` [Compound 949] the pest or weed control at 50 ppm (24 h) was 51 to 75% and the pest or weed control at 200 ppm (24 h) was 76 to 100%.

Work on `Fc1cnc(OCC(F)(F)F)nc1NCc1ccc2c(c1)OCO2` [Compound 950] yielded a pest or weed control at 50 ppm (24 h) of 0 to 25% and a pest or weed control at 200 ppm (24 h) of 0 to 25%.

In the case of `Cc1ccc(CNc2nc(OCc3ccc(F)cc3)ncc2F)cc1` [Compound 951], the pest or weed control at 50 ppm (24 h) is reported as 51 to 75% and the pest or weed control at 200 ppm (24 h) is reported as 76 to 100%.

`Fc1ccccc1CNc1nc(OCc2ccc(OC(F)(F)F)cc2)ncc1F` [Compound 953] showed a pest or weed control at 50 ppm (24 h) of 26 to 50% and a pest or weed control at 200 ppm (24 h) of 76 to 100%.

For `COc1ccccc1NC(=O)Nc1nc(O)ncc1F` [Compound 954, 1-(5-Fluoro-2-hydroxypyrimidin-4-yl)-3-(2-methoxyphenyl)urea], the pest or weed control at 25 ppm [1] was 26 to 50%, the pest or weed control at 25 ppm [2] was 26 to 50% and the pest or weed control at 25 ppm [3] was 26 to 50%. The pest or weed control at 100 ppm (72 h, three day curative (3DC)) was 51 to 75%.

Work on `Cc1ccc(COc2ncc(F)c(NS(=O)(=O)c3ccc(C)cc3)n2)cc1` [Compound 955, N-(5-Fluoro-2-(4-methylbenzyloxy)pyrimidin-4-yl)-4-methylbenzenesulfonamide] yielded a pest or weed control at 25 ppm [1] of 0 to 25%, a pest or weed control at 25 ppm [2] of 0 to 25% and a pest or weed control at 25 ppm [3] of 0 to 25%. It also gave a pest or weed control at 100 ppm (72 h, three day curative (3DC)) of 0 to 25%.

With `O=S(=O)(Nc1nc(O)ncc1F)c1ccccc1` [Compound 956, N-(5-Fluoro-2-hydroxypyrimidin-4-yl)benzenesulfonamide] the pest or weed control at 25 ppm [1] was 0 to 25%, the pest or weed control at 25 ppm [2] was 0 to 25% and the pest or weed control at 25 ppm [3] was 0 to 25%. It also gave a pest or weed control at 100 ppm (72 h, three day curative (3DC)) of 0 to 25%.

`CN(Cc1ccccc1)c1nc(O)ncc1F` [Compound 957, 4-(Benzylmethylamino)-5-fluoropyrimidin-2-ol] gave a pest or weed control at 25 ppm [1] of 0 to 25%, a pest or weed control at 25 ppm [2] of 0 to 25% and a pest or weed control at 25 ppm [3] of 26 to 50%. The pest or weed control at 100 ppm (72 h, three day curative (3DC)) was 26 to 50%.

`Fc1cnc(OCc2ccccc2)nc1/N=N/c1cccc(C(F)(F)F)c1` [Compound 958] was tested, and the pest or weed control at 25 ppm [1] was 0 to 25%, the pest or weed control at 25 ppm [2] was 0 to 25% and the pest or weed control at 25 ppm [3] was 26 to 50%. The pest or weed control at 100 ppm (72 h, three day curative (3DC)) was 26 to 50%.

Work on `C=CCOc1ncc(F)c(NNC(=O)c2cccc(C)c2)n1` [Compound 959, N′-(2-(allyloxy)-5-fluoropyrimidin-4-yl)-3-methylbenzohydrazide] yielded a pest or weed control at 25 ppm [1] of 0 to 25%, a pest or weed control at 25 ppm [2] of 0 to 25% and a pest or weed control at 25 ppm [3] of 0 to 25%. The pest or weed control at 100 ppm (72 h, three day curative (3DC)) was 0 to 25%.

`COc1ccc(/C=N/Nc2nc(O)ncc2F)cc1` [Compound 960, (E)-5-Fluoro-4-(2-(4-methoxybenzylidene)hydrazinyl)pyrimidin-2(1H)-one] gave a pest or weed control at 25 ppm [1] of 0 to 25%, a pest or weed control at 25 ppm [2] of 0 to 25% and a pest or weed control at 25 ppm [3] of 0 to 25%. The pest or weed control at 100 ppm (72 h, three day curative (3DC)) was 0 to 25%.

`O=CNc1nc(OCc2ccccc2)ncc1F` [Compound 961, N-(2-(Benzyloxy)-5-fluoropyrimidin-4-yl)formamide] was tested, and the pest or weed control at 25 ppm [1] was 76 to 100%, the pest or weed control at 25 ppm [2] was 76 to 100% and the pest or weed control at 25 ppm [3] was 76 to 100%. It also gave a pest or weed control at 100 ppm (72 h, three day curative (3DC)) of 76 to 100%.

Work on `Nc1nc(OCOC(=O)C2CCCC2)ncc1F` [Compound 962, (4-amino-5-fluoropyrimidin-2-yloxy)methyl cyclopentanecarboxylate] yielded a pest or weed control at 25 ppm [1] of 76 to 100%, a pest or weed control at 25 ppm [2] of 76 to 100% and a pest or weed control at 25 ppm [3] of 76 to 100%. The pest or weed control at 100 ppm (72 h, three day curative (3DC)) was 76 to 100%.

For `N#CNc1nc(OCc2ccccc2)ncc1F` [Compound 963, 2-Benzyloxy-5-fluoro-pyrimidin-4-yl-cyanamide], the pest or weed control at 25 ppm [1] was 0 to 25%, the pest or weed control at 25 ppm [2] was 0 to 25% and the pest or weed control at 25 ppm [3] was 26 to 50%. The pest or weed control at 100 ppm (72 h, three day curative (3DC)) was 0 to 25%.

From US9204653B2, “5-fluoro pyrimidine derivatives” (DOW AGROSCIENCES LLC, priority 2008, dated 2015)
